Laboratory results reported in patent US6358885B1, “Substituted phenylheterocyclic herbicides” (Mississippi State University, priority 1992, dated 2002).

How the values were obtained:
[1] = test system: lambsquarters; assay: Test C preemergence/postemergence greenhouse plant response rating 0 to 100; assay type: in vivo, Chenopodium album; settings: for Plant response rating Lambsquarters: 125 g/ha, 0 to 100 scale
How it was run: (§1)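 Compounds in non-phytotoxic solvent went onto sandy loam before emergence (seeded one day earlier) or onto plants at the one-to-four leaf stage. Duck salad was treated via flood water (~2.5 cm, maintained) over silt loam.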

[2] = test system: wild buckwheat; assay: Test B preemergence/postemergence greenhouse plant response rating 0 to 10; assay type: in vivo, Polygonum convolvulus; settings: for Plant response rating, Wild buckwheat: 0 to 10 scale
How it was run: (§2)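 Postemergence treatment of plants two to eighteen cm tall ran alongside preemergence treatment of planted seed, each using compound in a non-phytotoxic solvent.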

[3] = test system: duck salad; assay: Test C flood test plant response rating 0 to 100; assay type: in vivo, Heteranthera limosa
How it was run: as §1

[4] = test system: barnyardgrass; assay: Test C flood test plant response rating 0 to 100; assay type: in vivo, Echinochloa crus-galli
How it was run: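 Compounds in non-phytotoxic solvent applied preemergence to sandy loam one day after planting, postemergence at the 1–4 leaf stage, or to ~2.5 cm floodwater over silt loam.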

[5] = test system: ryegrass; assay: Test C preemergence/postemergence greenhouse plant response rating 0 to 100; assay type: in vivo, Lolium multiflorum; settings: for Plant response rating Ryegrass: 125 g/ha, 0 to 100 scale
How it was run: as §1

[6] = test system: rape; assay: as above; assay type: in vivo, Brassica napus; settings: for Plant response rating, Rape: 125 g/ha, 0 to 100 scale
How it was run: as §1

[7] = test system: giant foxtail; assay: as above; assay type: in vivo, Setaria faberii; settings: for Plant response rating, Giant foxtail: 125 g/ha, 0 to 100 scale
How it was run: as §1

[8] = test system: wheat; assay: as above; assay type: in vivo, Triticum aestivum; settings: for Plant response rating, Wheat: 125 g/ha, 0 to 100 scale
How it was run: as §1

[9] = test system: barley; assay: Test B preemergence/postemergence greenhouse plant response rating 0 to 10; assay type: in vivo, Hordeum vulgare; settings: for Plant response rating, Barley: 0 to 10 scale
How it was run: as §2

[10] = test system: cheatgrass; assay: as above; assay type: in vivo, Bromus secalinus; settings: for Plant response rating, Cheatgrass: 0 to 10 scale
How it was run: as §2

[11] = test system: sugar beet; assay: Test C preemergence/postemergence greenhouse plant response rating 0 to 100; assay type: in vivo, Beta vulgaris; settings: for Plant response rating, Sugar beet: 125 g/ha, 0 to 100 scale
How it was run: as §1

[12] = test system: blackgrass; assay: Test B preemergence/postemergence greenhouse plant response rating 0 to 10; assay type: in vivo, Alopecurus myosuroides; settings: for Plant response rating, Blackgrass: 0 to 10 scale
How it was run: as §2

[13] = test system: cocklebur; assay: as above; assay type: in vivo, Xanthium pensylvanicum; settings: for Plant response rating, Cocklebur: 0 to 10 scale
How it was run: as §2

[14] = test system: rice; assay: as above; assay type: in vivo, Oryza sativa; settings: for Plant response rating, Rice: 0 to 10 scale
How it was run: as §2

[15] = test system: corn; assay: Test C preemergence/postemergence greenhouse plant response rating 0 to 100; assay type: in vivo, Zea mays; settings: for Plant response rating, Corn: 125 g/ha, 0 to 100 scale
How it was run: as §1

[16] = test system: cotton; assay: Test B preemergence/postemergence greenhouse plant response rating 0 to 10; assay type: in vivo, Gossypium hirsutum; settings: for Plant response rating, Cotton: 0 to 10 scale
How it was run: as §2

[17] = test system: blackgrass; assay: Test C preemergence/postemergence greenhouse plant response rating 0 to 100; assay type: in vivo, Alopecurus myosuroides; settings: for Plant response rating, Blackgrass: 125 g/ha, 0 to 100 scale
How it was run: as §1

[18] = test system: bedstraw; assay: Test B preemergence/postemergence greenhouse plant response rating 0 to 10; assay type: in vivo, Galium aparine; settings: for Plant response rating, Bedstraw: 0 to 10 scale
How it was run: as §2

[19] = POSTEMERGENCE section, flood test, Rate 2 g/ha
[20] = Rate 8 g/ha, under POSTEMERGENCE head (flood test species)
[21] = Rate 31 g/ha, under POSTEMERGENCE head (flood test species)
[22] = flood test species listed under POSTEMERGENCE, 125 g/ha, 0 to 100 scale

CCOCOc1cc(-c2nn3c(c2Cl)CCCC3)c(F)cc1Cl [Compound 59]
90: Plant response rating (0 to 100), Barnyardgrass 2 [4, 20] | Plant response rating Ryegrass ([5]; PREEMERGENCE) | Plant response rating, Giant foxtail ([7]; POSTEMERGENCE) | Plant response rating, Giant foxtail ([7]; PREEMERGENCE) | Plant response rating (0 to 100), Sugar beet ([11]; POSTEMERGENCE, Rate 2 g/ha) | Plant response rating, Blackgrass ([17]; PREEMERGENCE)
5: Plant response rating (0 to 10 scale), Barley ([9]; PREEMERGENCE, Rate 200 g/ha) | Plant response rating (0 to 10 scale), Cheatgrass ([10]; PREEMERGENCE, Rate 200 g/ha) | Plant response rating (0 to 10 scale), Blackgrass ([12]; PREEMERGENCE, Rate 200 g/ha) | Plant response rating, Blackgrass ([12]; Rate 200 g/ha, POSTEMERGENCE) | Plant response rating, Rice ([14]; POSTEMERGENCE, Rate 50 g/ha) | Plant response rating, Rice ([14]; Rate 200 g/ha, POSTEMERGENCE)
7: Plant response rating, Cocklebur ([13]; POSTEMERGENCE, Rate 50 g/ha) | Plant response rating (0 to 10 scale), Cotton ([16]; PREEMERGENCE, Rate 200 g/ha)
1: Plant response rating (0 to 10 scale), Rice ([14]; PREEMERGENCE, Rate 200 g/ha)
95: Plant response rating Lambsquarters ([1]; POSTEMERGENCE) | Plant response rating (0 to 100), Lambsquarters ([1]; Rate 8 g/ha, PREEMERGENCE)
6: Plant response rating, Cheatgrass ([10]; Rate 200 g/ha, POSTEMERGENCE)
60: Plant response rating (0 to 100), Wheat ([8]; Rate 31 g/ha, POSTEMERGENCE)
2: Plant response rating, Barley ([9]; PREEMERGENCE, Rate 50 g/ha)
10: Plant response rating, Wild buckwheat ([2]; POSTEMERGENCE, Rate 50 g/ha) | Plant response rating, Wild buckwheat ([2]; PREEMERGENCE, Rate 50 g/ha) | Plant response rating (0 to 10 scale), Wild buckwheat ([2]; PREEMERGENCE, Rate 200 g/ha) | Plant response rating, Wild buckwheat ([2]; Rate 200 g/ha, POSTEMERGENCE) | Plant response rating (0 to 100), Ryegrass ([5]; POSTEMERGENCE, Rate 2 g/ha) | Plant response rating (0 to 100), Giant foxtail ([7]; Rate 8 g/ha, PREEMERGENCE) | Plant response rating (0 to 100), Wheat ([8]; POSTEMERGENCE, Rate 2 g/ha) | Plant response rating, Wheat ([8]; PREEMERGENCE) | Plant response rating, Cocklebur ([13]; Rate 200 g/ha, POSTEMERGENCE) | Plant response rating, Cotton ([16]; POSTEMERGENCE, Rate 50 g/ha) | Plant response rating, Cotton ([16]; Rate 200 g/ha, POSTEMERGENCE) | Plant response rating, Bedstraw ([18]; POSTEMERGENCE, Rate 50 g/ha) | Plant response rating (0 to 10 scale), Bedstraw ([18]; PREEMERGENCE, Rate 200 g/ha)
100: Plant response rating Lambsquarters ([1]; PREEMERGENCE) | Plant response rating (0 to 100), Lambsquarters ([1]; Rate 31 g/ha, PREEMERGENCE) | Plant response rating (0 to 100), Barnyardgrass 2 [4, 21] | Plant response rating Barnyardgrass 2 [4, 22] | Plant response rating, Rape ([6]; POSTEMERGENCE) | Plant response rating, Sugar beet ([11]; POSTEMERGENCE) | Plant response rating, Sugar beet ([11]; PREEMERGENCE) | Plant response rating (0 to 100), Sugar beet ([11]; Rate 8 g/ha, POSTEMERGENCE) | Plant response rating (0 to 100), Sugar beet ([11]; Rate 31 g/ha, POSTEMERGENCE)
85: Plant response rating (0 to 100), Lambsquarters ([1]; Rate 31 g/ha, POSTEMERGENCE)
4: Plant response rating, Barley ([9]; POSTEMERGENCE, Rate 50 g/ha) | Plant response rating, Barley ([9]; Rate 200 g/ha, POSTEMERGENCE) | Plant response rating, Cheatgrass ([10]; POSTEMERGENCE, Rate 50 g/ha) | Plant response rating, Cheatgrass ([10]; PREEMERGENCE, Rate 50 g/ha) | Plant response rating, Blackgrass ([12]; POSTEMERGENCE, Rate 50 g/ha) | Plant response rating, Blackgrass ([12]; PREEMERGENCE, Rate 50 g/ha) | Plant response rating, Cotton ([16]; PREEMERGENCE, Rate 50 g/ha)
50: Plant response rating (0 to 100), Ryegrass ([5]; Rate 31 g/ha, PREEMERGENCE) | Plant response rating (0 to 100), Giant foxtail ([7]; Rate 31 g/ha, PREEMERGENCE) | Plant response rating (0 to 100), Sugar beet ([11]; Rate 31 g/ha, PREEMERGENCE) | Plant response rating (0 to 100), Corn ([15]; Rate 31 g/ha, POSTEMERGENCE) | Plant response rating (0 to 100), Blackgrass ([17]; Rate 31 g/ha, POSTEMERGENCE) | Plant response rating (0 to 100), Blackgrass ([17]; Rate 31 g/ha, PREEMERGENCE)
70: Plant response rating (0 to 100), Lambsquarters ([1]; Rate 8 g/ha, POSTEMERGENCE) | Plant response rating (0 to 100), Rape ([6]; Rate 31 g/ha, POSTEMERGENCE) | Plant response rating (0 to 100), Giant foxtail ([7]; Rate 31 g/ha, POSTEMERGENCE) | Plant response rating, Wheat ([8]; POSTEMERGENCE) | Plant response rating, Blackgrass ([17]; POSTEMERGENCE)
0: Plant response rating (0 to 100), Lambsquarters ([1]; PREEMERGENCE, Rate 2 g/ha) | Plant response rating (0 to 100), Duck salad [3, 19] | Plant response rating (0 to 100), Duck salad [3, 20] | Plant response rating (0 to 100), Barnyardgrass 2 [4, 19] | Plant response rating (0 to 100), Ryegrass ([5]; PREEMERGENCE, Rate 2 g/ha) | Plant response rating (0 to 100), Rape ([6]; PREEMERGENCE, Rate 2 g/ha) | Plant response rating (0 to 100), Rape ([6]; Rate 8 g/ha, PREEMERGENCE) | Plant response rating (0 to 100), Rape ([6]; Rate 31 g/ha, PREEMERGENCE) | Plant response rating (0 to 100), Giant foxtail ([7]; PREEMERGENCE, Rate 2 g/ha) | Plant response rating (0 to 100), Wheat ([8]; PREEMERGENCE, Rate 2 g/ha) | Plant response rating (0 to 100), Wheat ([8]; Rate 8 g/ha, PREEMERGENCE) | Plant response rating (0 to 100), Wheat ([8]; Rate 31 g/ha, PREEMERGENCE) | Plant response rating (0 to 100), Sugar beet ([11]; PREEMERGENCE, Rate 2 g/ha) | Plant response rating, Cocklebur ([13]; PREEMERGENCE, Rate 50 g/ha) | Plant response rating, Rice ([14]; PREEMERGENCE, Rate 50 g/ha) | Plant response rating, Corn ([15]; PREEMERGENCE) | Plant response rating (0 to 100), Corn ([15]; PREEMERGENCE, Rate 2 g/ha) | Plant response rating (0 to 100), Corn ([15]; Rate 8 g/ha, PREEMERGENCE) | Plant response rating (0 to 100), Corn ([15]; Rate 31 g/ha, PREEMERGENCE) | Plant response rating (0 to 100), Blackgrass ([17]; PREEMERGENCE, Rate 2 g/ha)
30: Plant response rating (0 to 100), Lambsquarters ([1]; POSTEMERGENCE, Rate 2 g/ha) | Plant response rating (0 to 100), Sugar beet ([11]; Rate 8 g/ha, PREEMERGENCE) | Plant response rating (0 to 100), Corn ([15]; POSTEMERGENCE, Rate 2 g/ha) | Plant response rating (0 to 100), Blackgrass ([17]; Rate 8 g/ha, POSTEMERGENCE)
80: Plant response rating Duck salad [3, 22] | Plant response rating Ryegrass ([5]; POSTEMERGENCE)
8: Plant response rating (0 to 10 scale), Cocklebur ([13]; PREEMERGENCE, Rate 200 g/ha) | Plant response rating, Bedstraw ([18]; PREEMERGENCE, Rate 50 g/ha) | Plant response rating, Bedstraw ([18]; Rate 200 g/ha, POSTEMERGENCE)
40: Plant response rating (0 to 100), Duck salad [3, 21] | Plant response rating (0 to 100), Ryegrass ([5]; Rate 31 g/ha, POSTEMERGENCE) | Plant response rating, Rape ([6]; PREEMERGENCE) | Plant response rating (0 to 100), Rape ([6]; Rate 8 g/ha, POSTEMERGENCE) | Plant response rating (0 to 100), Giant foxtail ([7]; Rate 8 g/ha, POSTEMERGENCE) | Plant response rating (0 to 100), Wheat ([8]; Rate 8 g/ha, POSTEMERGENCE) | Plant response rating (0 to 100), Corn ([15]; Rate 8 g/ha, POSTEMERGENCE)
65: Plant response rating, Corn ([15]; POSTEMERGENCE)
20: Plant response rating (0 to 100), Ryegrass ([5]; Rate 8 g/ha, POSTEMERGENCE) | Plant response rating (0 to 100), Ryegrass ([5]; Rate 8 g/ha, PREEMERGENCE) | Plant response rating (0 to 100), Rape ([6]; POSTEMERGENCE, Rate 2 g/ha) | Plant response rating (0 to 100), Giant foxtail ([7]; POSTEMERGENCE, Rate 2 g/ha) | Plant response rating (0 to 100), Blackgrass ([17]; POSTEMERGENCE, Rate 2 g/ha) | Plant response rating (0 to 100), Blackgrass ([17]; Rate 8 g/ha, PREEMERGENCE)
